Activity calls are given as the source filed them.
Columns and labels:
[1] = test system: Yersinia pseudotuberculosis; assay: Inhibition of Yersinia pseudotuberculosis Type 3 secretion system protein by SDS-PAGE analysis
Hep293TT = assay: Cytotoxicity against human Hep293TT cells after 48 hrs by sulforhodamine B assay; type: functional, cell-based
Homo sapiens [2] = species on record: Homo sapiens; assay: Cytotoxicity against human D283 cells after 48 hrs by sulforhodamine B assay; type: functional, cell-based
Homo sapiens [3] = species on record: Homo sapiens; assay: Cytotoxicity against human SJCRH30 cells after 48 hrs by sulforhodamine B assay; type: functional, cell-based
A673 = assay: Cytotoxicity against human A673 cells after 48 hrs by sulforhodamine B assay; type: functional, cell-based

CN1CCc2c[nH]c3c2c1cc1[o+]c2cc4c5c(c[nH]c5c2nc13)CCN4C
inactive: inhibition [1] | Activity (Hep293TT) | Activity (Homo sapiens [2]) | Activity (Homo sapiens [3]) | Activity (A673)

Cc1nc2c(cc1-c1ccc(O)cc1)cc1c3c(c[nH]c32)CCN1C
inactive: inhibition [1] | Activity (Hep293TT) | Activity (Homo sapiens [2]) | Activity (Homo sapiens [3]) | Activity (A673)
